± gives the standard deviation of the averaged measurements.

Settings in all cases: 24 h
Experiment [1] deals with U-2 OS. Nature of the experiment: intracellular GSH:GSSG ratio (calculated); higher = more reduced glutathione pool. Here is the method: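 Intracellular glutathione in U-2 OS cells after 24 h compound treatment at 5, 10 and 20 uM (some at 40 and 80 uM). Total glutathione and GSSG were measured with the GSH/GSSG-Glo kit, and the GSH:GSSG ratio was calculated. Mean of five technical replicate plates.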

Experiment [2] has as its system U-2 OS. The experiment can be described thus: cell viability (CellTiter-Glo) relative to DMSO (% of control); higher = more viable. As for the experimental part: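 Cell viability of U-2 OS cells by CellTiter-Glo after 24 h compound treatment at 5, 10 and 20 uM (some at 40 and 80 uM), measured in parallel with the glutathione assay, as percent of DMSO control. Five technical replicate plates, averaged.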
In general terms: Cellular ATP, detected with luciferase, serves as a proxy for viable cell number.

The test system of experiment [3] is U-2 OS. Nature of the experiment: total intracellular glutathione (GSH + GSSG) relative to DMSO (% of control); higher = more glutathione. As for the experimental part: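 Total intracellular glutathione (GSH + GSSG) in U-2 OS cells by GSH/GSSG-Glo after 24 h compound treatment at 5, 10 and 20 uM (some at 40 and 80 uM), as percent of DMSO control. Five technical replicate plates, averaged.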

The test system of experiment [4] is U-2 OS. Nature of the experiment: cell painting activity score (Mahalanobis distance from DMSO wells); higher = stronger morphological phenotype. Summed up: (§1)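 In this cell painting assay, roughly 1,500 U-2 OS cells per well in 384-well plates were pin-tool treated at 37 °C for 24 h, typically at six 2-fold steps from 20 μM down to 625 nM. Cells were stained with MitoTracker, concanavalin A, phalloidin, wheat germ agglutinin, Hoechst and SYTO 14, imaged on an Opera Phenix, and analysed in CellProfiler with normalization to same-plate DMSO cells. Reported values are means of four replicate plates, with the activity score defined as the Mahalanobis distance from DMSO wells and cell count defined relative to DMSO wells.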

Experiment [5] relates to U-2 OS. The experiment can be described thus: relative cell count vs DMSO (cell painting) (fraction of DMSO control); higher = more cells remaining (less cytotoxic). The gist of the method: as §1

Turning to `COC1=CC=C(S(=O)(O/N=C2C=C(C(C(C)=C\2)=O)C)=O)C=C1`, the “intracellular GSH:GSSG ratio” value in the experiment on U-2 OS [1] (5 µM) is 4.85; in the experiment on U-2 OS [1] (10 µM), 2.61. The cell viability in the experiment on U-2 OS [2] (5 µM) came to 31.2 ± 1.5; in the experiment on U-2 OS [2] (10 µM), 15.9 ± 2; with U-2 OS [2] (20 µM), 9.58 ± 10; in the experiment with U-2 OS [2] (40 µM), 0.28 ± 0.061; in the experiment on U-2 OS [2] (80 µM), 0.124 ± 0.018. In addition, the total intracellular glutathione was 59.9 ± 4 in the experiment on U-2 OS [3] (5 µM); 41.1 ± 5.9 in the experiment with U-2 OS [3] (10 µM); 6.59 ± 2.2 in the experiment on U-2 OS [3] (20 µM); 0.79 ± 0.15 with U-2 OS [3] (40 µM); 0.604 ± 0.13 with U-2 OS [3] (80 µM). Further, the “cell painting activity score” value in the experiment with U-2 OS [4] (0.625 µM) came to 4.25; in the experiment with U-2 OS [4] (1.25 µM) it was 8.9; with U-2 OS [4] (2.5 µM), 10.5; with U-2 OS [4] (5 µM) it was 12; in the experiment with U-2 OS [4] (10 µM), 16.6; with U-2 OS [4] (20 µM), 24.6. The “cell painting activity score” value in the experiment on U-2 OS [4] (40 µM) came to 22.8; in the experiment on U-2 OS [4] (80 µM), 20.4. Also, the relative cell count in the experiment on U-2 OS [5] (0.625 µM) amounted to 1.01; in the experiment on U-2 OS [5] (1.25 µM), 0.93; with U-2 OS [5] (2.5 µM), 0.9; with U-2 OS [5] (5 µM), 0.718; in the experiment on U-2 OS [5] (10 µM) it was 0.17; in the experiment on U-2 OS [5] (20 µM), 0.237. The relative cell count with U-2 OS [5] (40 µM) stood at 0.146; with U-2 OS [5] (80 µM), 0.0922.
With `CC(C)([C@](C1=O)(C2=O)C/C=C(C)\C)[C@@H](C[C@]31C[C@@H](C(C)(OC3=C2C(C4=CC(O)=C(C=C4)O)=O)C)C/C=C(C)\C)C/C=C(C)\C`, the “intracellular GSH:GSSG ratio” value in the experiment with U-2 OS [1] (5 µM) is 27; with U-2 OS [1] (10 µM), 22.3; in the experiment with U-2 OS [1] (20 µM), 10.9; in the experiment with U-2 OS [1] (80 µM) it was 17.8. The cell viability in the experiment on U-2 OS [2] (5 µM) was 99.7 ± 2.4; in the experiment on U-2 OS [2] (10 µM), 62.6 ± 14; with U-2 OS [2] (20 µM), 43.4 ± 17; in the experiment on U-2 OS [2] (40 µM), 0.646 ± 0.18; in the experiment with U-2 OS [2] (80 µM), 0.745 ± 0.2. For the same compound, the “cell painting activity score” value in the experiment on U-2 OS [4] (0.625 µM) is 3.69; in the experiment on U-2 OS [4] (1.25 µM), 3.85; in the experiment on U-2 OS [4] (2.5 µM), 6.36; in the experiment on U-2 OS [4] (5 µM) it was 7.13; in the experiment on U-2 OS [4] (10 µM), 13.5; in the experiment with U-2 OS [4] (20 µM), 18.6. For the same compound, the relative cell count in the experiment on U-2 OS [5] (0.625 µM) is 1.21; with U-2 OS [5] (1.25 µM) it was 1.12; with U-2 OS [5] (2.5 µM), 1.19; with U-2 OS [5] (5 µM) it was 1.15; in the experiment on U-2 OS [5] (10 µM) it was 1.04; in the experiment on U-2 OS [5] (20 µM), 0.492.
As to `C=CC(=O)Nc1cc2c(Nc3ccc(F)c(Cl)c3)ncnc2cc1OC`, the “intracellular GSH:GSSG ratio” value in the experiment with U-2 OS [1] (5 µM) was 19.9; in the experiment on U-2 OS [1] (10 µM), 24.8; in the experiment on U-2 OS [1] (20 µM) it was 20.5. In addition, the cell viability with U-2 OS [2] (5 µM) stood at 93.5 ± 3.4; in the experiment with U-2 OS [2] (10 µM), 91.9 ± 1.7; in the experiment with U-2 OS [2] (20 µM) it was 86.5 ± 2.2. The total intracellular glutathione in the experiment with U-2 OS [3] (5 µM) stood at 99.7 ± 5.3; in the experiment on U-2 OS [3] (10 µM), 96.6 ± 3.8; with U-2 OS [3] (20 µM) it was 94.5 ± 4.3. In addition, the “cell painting activity score” value in the experiment on U-2 OS [4] (0.625 µM) is 5.64; in the experiment on U-2 OS [4] (1.25 µM), 6.77; in the experiment with U-2 OS [4] (2.5 µM), 6.2; in the experiment with U-2 OS [4] (5 µM), 7.6; with U-2 OS [4] (10 µM) it was 7.34; in the experiment on U-2 OS [4] (20 µM) it was 7.33. The relative cell count in the experiment with U-2 OS [5] (0.625 µM) worked out at 1.02; in the experiment with U-2 OS [5] (1.25 µM), 1.06; in the experiment on U-2 OS [5] (2.5 µM), 1.05; in the experiment with U-2 OS [5] (5 µM) it was 0.989; in the experiment on U-2 OS [5] (10 µM), 1; in the experiment with U-2 OS [5] (20 µM) it was 0.992.
`O=C1CC(Sc2nnnn2-c2ccccc2)C(=O)N1c1ccc([N+](=O)[O-])cc1` (stereo unspecified): the “intracellular GSH:GSSG ratio” value in the experiment on U-2 OS [1] (5 µM) is 26; in the experiment with U-2 OS [1] (10 µM) it was 17; with U-2 OS [1] (20 µM), 7.14. The cell viability in the experiment with U-2 OS [2] (5 µM) is 102 ± 5.5; in the experiment on U-2 OS [2] (10 µM), 104 ± 5.8; with U-2 OS [2] (20 µM), 46.2 ± 11. Also, the total intracellular glutathione in the experiment on U-2 OS [3] (5 µM) was determined as 117 ± 6.5; with U-2 OS [3] (10 µM) it was 122 ± 5.5; in the experiment with U-2 OS [3] (20 µM), 61.8 ± 13. Further, the “cell painting activity score” value in the experiment with U-2 OS [4] (0.625 µM) came out at 4.41; in the experiment on U-2 OS [4] (1.25 µM), 4.65; in the experiment on U-2 OS [4] (2.5 µM), 4.9; in the experiment on U-2 OS [4] (5 µM), 6.88; with U-2 OS [4] (10 µM), 12.5; in the experiment with U-2 OS [4] (20 µM), 18.1. Also, the relative cell count in the experiment with U-2 OS [5] (0.625 µM) worked out at 1.06; in the experiment on U-2 OS [5] (1.25 µM), 1.07; in the experiment with U-2 OS [5] (2.5 µM) it was 1.12; in the experiment on U-2 OS [5] (5 µM), 1.01; with U-2 OS [5] (10 µM), 0.828; with U-2 OS [5] (20 µM), 0.677.

Source of the values: the supplement of paper PMC10011410.
